Read-outs that look alike come from different tables or passages of the source.
Experiments:
mouse CB1 receptors [1] = target: T1, mouse CB1 receptors (Mus musculus, UniProt P47746); set-up: method as in PMID 27527584, PMID 25769232; settings: read-out: Mouse Cortex Membranes CB1 Ki; [3H]-CP-55,940 competition binding; mean ± SEM; data elaborated from ref [15],[33]; cited from earlier work
T1 construct: membranes from the mouse brain and spleen were used, respectively; from tissue

human CB1 receptors = target: T2, human CB1 receptors (Homo sapiens, UniProt P21554); set-up: method as in PMID 27527584, PMID 25769232; settings: read-out: hCB1 CHO Cells IC50; cyclic AMP experiments; mean ± SEM; data elaborated from ref [15],[33]; cited from earlier work
T2 construct: host or cells: CHO cells
T2 sequence (P21554 whole entry): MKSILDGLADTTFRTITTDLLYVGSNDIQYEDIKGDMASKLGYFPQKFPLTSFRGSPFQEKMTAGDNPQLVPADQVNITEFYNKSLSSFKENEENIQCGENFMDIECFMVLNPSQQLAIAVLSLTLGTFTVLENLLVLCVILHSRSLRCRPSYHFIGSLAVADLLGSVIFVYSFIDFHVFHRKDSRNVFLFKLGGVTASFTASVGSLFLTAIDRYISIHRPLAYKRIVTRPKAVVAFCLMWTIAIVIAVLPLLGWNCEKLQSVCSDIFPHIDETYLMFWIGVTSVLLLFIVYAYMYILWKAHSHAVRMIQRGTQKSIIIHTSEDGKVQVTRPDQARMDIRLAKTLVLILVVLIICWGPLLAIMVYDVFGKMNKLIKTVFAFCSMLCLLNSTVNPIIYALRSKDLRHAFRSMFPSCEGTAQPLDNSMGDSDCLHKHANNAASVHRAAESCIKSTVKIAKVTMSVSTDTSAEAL

human CB2 receptors = target: T3, human CB2 receptors (Homo sapiens, UniProt P34972); set-up: method as in PMID 27527584, PMID 25769232; settings: read-out: hCB2 CHO Cells IC50; cyclic AMP experiments; mean ± SEM; data elaborated from ref [15],[33]; cited from earlier work
T3 construct: host or cells: CHO cells
T3 sequence (P34972 whole entry): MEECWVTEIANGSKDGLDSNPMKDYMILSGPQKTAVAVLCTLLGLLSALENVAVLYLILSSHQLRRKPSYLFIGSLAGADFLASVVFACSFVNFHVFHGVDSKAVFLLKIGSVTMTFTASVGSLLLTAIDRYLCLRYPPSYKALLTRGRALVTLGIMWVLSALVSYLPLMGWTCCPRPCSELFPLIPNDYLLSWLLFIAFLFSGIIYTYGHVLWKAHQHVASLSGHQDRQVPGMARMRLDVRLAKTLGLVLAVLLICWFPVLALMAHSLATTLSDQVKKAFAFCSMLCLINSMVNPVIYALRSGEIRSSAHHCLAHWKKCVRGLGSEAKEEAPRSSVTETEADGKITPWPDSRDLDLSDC

CD-1 mice [2] = system: CD-1 mice; set-up: method as in PMID 25769232, PMID 25987201; settings: ED50 + SEM, data elaborated from ref [33],[34]; cited from earlier work
mouse CB1 receptors [3] = target: T1, mouse CB1 receptors; assay: [3H]-CP-55,940 competition binding, mouse brain (cortex) membranes
Experimental: Following excision from mice, tissues were suspended in 50 mM Tris HCl, pH 7.4, at 4 °C. The mouse brain and spleen tissues were homogenized with a Polytron and subsequently centrifuged for 10 min at 2000× g. The resulting supernatants were filtered and centrifuged for 20 min at 40,000× g, and the pellets were used for competition binding experiments.
Competition binding experiments were carried out by incubating 0.5 nM [3H]-CP-55,940 (Perkin Elmer Life and Analytical Sciences, Waltham, MA, USA) and different concentrations of the tested compounds for 90 or 60 min at 30 °C for CB1 or CB2 receptors, respectively. […] Non-specific binding was determined in the presence of 1 μM WIN 55,212-2 [92]. Bound and free radioactivity were separated by filtering the assay mixture through Whatman GF/C glass fiber filters using a Brandel cell harvester (Brandel Instruments, Unterföhring, Germany). The filter-bound radioactivity was counted using a Packard Tri Carb 2810 TR scintillation counter (Perkin Elmer Life and Analytical Sciences, Waltham, MA, USA).
The protein concentration was determined according to a Bio-Rad method with bovine serum albumin as a reference standard. Inhibitory binding constants, Ki, were calculated from the IC50 values according to the Cheng and Prusoff equation:Ki = IC50/(1 + [C*]/KD*) where [C*] is the concentration of the radioligand and KD* its dissociation constant. […]

CD-1 mice [4] = assay: Acoustic response (startle reflex) test; assay type: in vivo, mouse
CD-1 mice [5] = assay: Core (rectal) temperature evaluation; assay type: in vivo, mouse
CD-1 mice [6] = assay: Tail pinch test (acute mechanical nociception); assay type: in vivo, mouse
Experimental: The motor responses of the animal to different visual and acoustic stimuli were evaluated according to the procedure described in our previous studies. To reduce the number of animals used, mice were evaluated in functional observational tests carried out in a consecutive manner according to the following time scheme: Observation of visual object and acoustic responses and breath rate were measured at 0, 10, 30, 60, 120, 180, 240, and 300 min after injections. Visual placing response was measured at 0, 15, 35, 70, 125, 185, 245, and 305 min after injection. Core temperature was measured at 25, 45, 85, 140, 200, 260, and 320 min after injection. The tail pinch test was measured at 35, 55, 90, 145, 205, 265, and 325 min after injection, and the valuation of number of steps in the drag test was measured at 45, 75, 105, 160, 220, 280, and 340 min after injection.
The tail pinch test is used for evaluating acute mechanical nociception. A special rigid probe connected to a digital dynamometer (ZP-50N, 441-8077, Toyohashi, Aichi, Japan) was gently placed on the tail (in the distal portion), and progressive pressure was applied. When the […] flicked its tail, the pressure was stopped, and the digital instrument saved the maximum peak of weight supported (g/force). A cut-off (500 g/force) was set to avoid tissue damage. The test was repeated three times, and the final value was calculated with the average of three obtained scores.
Data are expressed in arbitrary units (visual objects and acoustic responses) and percentage of baseline (visual placing response, breath rate, and drag test). Core temperature values were expressed as the difference between control temperature (before injection) and temperature following drug administration (Δ °C). Antinociception (tail pinch tests) was calculated as percentage of maximal possible effect:EMax% = [(test − control latency)/(cut off time − control)] × 100
All data are shown as mean ± SEM of 8 independent experimental replications. […] ED50 (dose of agonist to obtain 50% of the overall mean effect) values were calculated by non-linear regression analysis of dose–response data performed using Prism software (GraphPad Prism, San Diego, CA, USA). The calculation of JWH-018 ED50 values was based on the results of previous studies. Curves have been compared, when possible, performing the F test (curve comparison). All statistical analysis was performed using the program Prism 8.0 software (GraphPad Prism, San Diego, CA, USA).

[7] = 0.01–30 mg/kg i.p., monitored over 5 h
[8] = Mus musculus, ip, mice, ED50 + SEM

T1 sequence (P47746 whole entry): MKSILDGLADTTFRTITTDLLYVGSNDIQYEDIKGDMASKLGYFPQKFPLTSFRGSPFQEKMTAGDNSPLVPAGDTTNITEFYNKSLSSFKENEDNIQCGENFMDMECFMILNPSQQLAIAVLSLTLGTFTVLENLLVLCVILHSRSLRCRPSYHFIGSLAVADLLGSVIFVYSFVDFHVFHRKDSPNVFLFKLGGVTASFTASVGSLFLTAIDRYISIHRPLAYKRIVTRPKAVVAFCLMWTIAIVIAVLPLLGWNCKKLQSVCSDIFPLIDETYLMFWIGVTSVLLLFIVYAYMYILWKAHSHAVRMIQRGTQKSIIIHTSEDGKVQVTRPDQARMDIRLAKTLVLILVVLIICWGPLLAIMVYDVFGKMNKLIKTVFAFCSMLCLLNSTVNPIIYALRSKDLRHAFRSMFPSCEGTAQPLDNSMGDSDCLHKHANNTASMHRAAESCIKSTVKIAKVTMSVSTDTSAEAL

SMILES | Ki (mouse CB1 receptors [1]) | IC50 (human CB1 receptors) | IC50 (human CB2 receptors) | ED50 Visual Placing (CD-1 mice [2]) | Ki (mouse CB1 receptors [3]) | effect on acoustic response (CD-1 mice [4]; [7]) | ED50 (CD-1 mice [4]; [8]) | effect on core temperature (CD-1 mice [5]; [7]) | ED50 (CD-1 mice [5]; [8]) | effect on threshold to acute mechanical pain stimulus (tail pinch) (CD-1 mice [6]; [7]) | ED50 (CD-1 mice [6]; [8]) | lowest dose from which increased pain threshold to acute mechanical stimulus was observed (CD-1 mice [6]; i.p.) | time of maximum analgesic effect (tail pinch) (CD-1 mice [6]; maximum dose of 30 mg/kg i.p.)
CCCCCn1cc(C(=O)c2cccc3ccccc23)c2ccccc21 [JWH-018, 1-naphthalenyl(1-pentyl-1H-indol-3-yl)-methanone] | 5.82 ± 0.44 nM | 13.7 ± 1.04 nM | 11.6 ± 0.97 nM | 0.7 ± 0.06 mg/kg |  |  |  |  |  |  |  |  | 
CCCCCn1cc(Cc2cccc3ccccc23)c2ccccc21 [JWH-175, 3-(1-naphthalenylmethyl)-1-pentyl-1H-indole] |  |  |  |  | 33.6 ± 2.4 nM | dose-dependently reduced | 4 ± 0.03 mg/kg | reduced | 5.6 ± 0.04 mg/kg | dose-dependently increased the threshold to acute mechanical pain stimulus | 4 ± 0.12 mg/kg | 0.1 mg/kg | 265 min

From article PMC9318133 (International Journal of Molecular Sciences, 2022)
